Assays:
[1] = biological target: eGFP (C70M S147C) (Aequorea victoria, UniProt P42212, C70M/F64L/H231L/S147C/S65T); test: Second-order rate constant of the reaction with eGFP, intact protein MS; settings: one equivalent of eGFP (C70M S147C), Tris buffer pH 8.3, 90 μM, room temperature, eGFP C70M as internal standard, triplicate
[2] = Hydrolysis of the P−N bond under acidic conditions; type: physicochemical; settings: slightly acidic conditions (pH≤3)

| Structure (SMILES) | second‐order rate constant [1] | Hydrolytic stability of the P−N bond [2] |
| --- | --- | --- |
| C#CCCOP(=O)(C#C)C#C [compound 2] | approximately 0.47 M^−1 s^−1 | – |
| C#CP(=O)(C#C)N(CC)CC [II] | – | rapid hydrolysis of the P−N bond |

Reference: article PMC8362001 (Angewandte Chemie (International Ed. in English), 2021)
